Laboratory results taken from US20120177693A1, “DEEP LUNG PULMONARY DELIVERY OF TREPROSTINIL” (Aradigm Corporation, priority 2008, published 2012).

Columns and labels:
[1] = Venous plasma pharmacokinetics of inhaled treprostinil via AERx Essence or Nebu-Tec Optineb, 14 healthy male subjects; conditions: for AUCINF_obs_D (dose normalised AUCI) / AUClast_D (dose normalised AUCT) / Cmax_D (dose normalised Cmax): Mean, normalised for dose to lung
Procedure: On each of two dosing days, eligible subjects underwent dosing with ^99mTc-labeled treprostinil sodium using either the AERx Essence System or the Nebu-Tec Optineb nebulizer. Following their initial study dose, subjects underwent a washout period of approximately 48 hours before completing a second (crossover) study dose.
Immediately following each study dose, subjects underwent gamma scintigraphy and multiple samplings of venous blood to characterize treprostinil lung deposition and plasma pharmacokinetics.
To evaluate treprostinil plasma pharmacokinetics, 16 venous blood samples were drawn into 7.5 ml Potassium EDTA monovette tubes following each study dose (i.e., Essence and Optineb). Sampling occurred approximately 1 hour prior to dosing and at +2, +3, +5, +7, +10, +15, +20, +30, +60, +90, +120, +180, +240, +300, and +360 minutes after the start of each study dose. Thus, a total of 32 blood samples (˜250 mL) were collected for pharmacokinetic assessment over the two dosing days. Immediately upon sampling the sample was identified with a bar coded label bearing details of study number, subject number, sampling time point, sample type and a unique 9 digit identification number. The sample was separated by centrifugation at 1500×g and 4° C. for 10 minutes. Two equal aliquots of plasma/serum were transferred to 2 polypropylene tubes labelled identically to the original blood sample and stored at approximately −20° C. pending analysis. The time at which samples were taken, received into the separating room and placed in the freezer was recorded in the study documentation.
The pharmacokinetic parameters Cmax, AUCT and AUCI were normalised for the dose delivered to the lung, as determined from the scintigraphy data (Tables 14.2.1.5 & 14.2.1.6).

[2] = male, human, in vivo
[3] = via Nebu-Tec, Geometric LS means, dose-normalised for the calculated dose to lung (μg)

CCCCC[C@H](O)CC[C@@H]1[C@H]2Cc3cccc(OCC(=O)[O-])c3C[C@H]2C[C@H]1O.[Na+] [treprostinil, (1R,2R,3aS,9aS)-[[2,3,3a,4,9,9a-Hexahydro-2-hydroxyl-1-[(3S)-3-hydroxyoctyl]-1H-benz[f]inden-5-yl]oxy]acetic acid monosodium salt]
AUCINF_obs_D (dose normalised AUCI) ([1]; via AERx): 0.029 ng·h/mL/µg | AUClast_D (dose normalised AUCT) ([1]; via AERx): 0.028 ng·h/mL/µg | Cmax_D (dose normalised Cmax) ([1]; via AERx): 0.024 ng/mL/µg | Cmax_D ([1]; via AERx, Median): 0.022 ng/mL/µg | Vz_F_obs ([1]; via AERx, Median): 34319.392 mL | AUCINF—obs ([1]; via AERx, Min): 0.407 ng·h/mL | AUClast ([1]; via AERx, Min): 0.375 ng·h/mL | Cmax ([1]; via AERx, Min): 0.299 ng/mL | Cmax_D ([1]; via AERx, Min): 0.016 ng/mL/µg | T1/2 ([1]; via AERx, Min): 28.3 min | Tmax ([1]; via AERx, Min): 7.02 min | Vz_F_obs ([1]; via AERx, Min): 21692.705 mL | Dose-normalised AUCI [1, 3]: 0.028 ng·h/mL | Dose-normalised AUCT [1, 3]: 0.027 ng·h/mL | Dose-normalised Cmax [1, 3]: 0.037 ng/mL | Cmax_D ([1]; via Optineb, GM): 0.037 ng/mL/µg | Vz_F_obs ([1]; via Optineb, GM): 32721.114 mL | AUCINF—obs ([1]; via Optineb, Max): 0.852 ng·h/mL | AUClast ([1]; via Optineb, Max): 0.816 ng·h/mL | Cmax ([1]; via Optineb, Max): 1.559 ng/mL | Cmax_D ([1]; via Optineb, Max): 0.069 ng/mL/µg | T1/2 ([1]; via Optineb, Max): 66.42 min | Tmax ([1]; via Optineb, Max): 20 min | Vz_F_obs ([1]; via Optineb, Max): 92051.057 mL | AUCINF_obs_D (dose normalised AUCI) ([1]; via Optineb): 0.030 ng·h/mL/µg | AUClast_D (dose normalised AUCT) ([1]; via Optineb): 0.029 ng·h/mL/µg | Cmax_D (dose normalised Cmax) ([1]; via Optineb): 0.041 ng/mL/µg | Cmax_D ([1]; via Optineb, Median): 0.037 ng/mL/µg | Vz_F_obs ([1]; via Optineb, Median): 32525.036 mL | AUCINF—obs ([1]; via Optineb, Min): 0.360 ng·h/mL | AUClast ([1]; via Optineb, Min): 0.315 ng·h/mL | Cmax ([1]; via Optineb, Min): 0.312 ng/mL | Cmax_D ([1]; via Optineb, Min): 0.017 ng/mL/µg | T1/2 ([1]; via Optineb, Min): 25.6 min | Tmax ([1]; via Optineb, Min): 4.98 min | Vz_F_obs ([1]; via Optineb, Min): 16866.083 mL | Adverse events considered possibly related to the study medication [2]: 15 | Adverse events considered probably related to study medication [2]: 11 | Adverse events considered unlikely related to the study medication [2]: 1 | Adverse events recorded as mild in intensity [2]: 23 | Adverse events recorded as moderate in intensity [2]: 4 | Number of Subjects (% brackets) with CHEST DISCOMFORT [2]: 2 (14.3) | Number of Subjects (% brackets) with COUGH [2]: 6 (42.9) | Number of Subjects with CHEST DISCOMFORT, relationship POSSIBLE [2]: 1 | Number of Subjects with CHEST DISCOMFORT, relationship PROBABLE [2]: 1 | Number of Subjects with CHEST DISCOMFORT, relationship UNLIKELY [2]: 0 | Number of Subjects with COUGH, relationship UNLIKELY [2]: 0 | Number of Subjects with DIZZINESS, relationship POSSIBLE [2]: 2 | Number of Subjects with DIZZINESS, relationship PROBABLE [2]: 0 | Number of Subjects with DIZZINESS, relationship UNLIKELY [2]: 0 | Number of Subjects with DRY THROAT, relationship POSSIBLE [2]: 1 | Number of Subjects with DRY THROAT, relationship PROBABLE [2]: 0 | Number of Subjects with DRY THROAT, relationship UNLIKELY [2]: 0 | Number of Subjects with DYSPNOEA, relationship POSSIBLE [2]: 0 | Number of Subjects with DYSPNOEA, relationship PROBABLE [2]: 1 | Number of Subjects with DYSPNOEA, relationship UNLIKELY [2]: 0 | Number of Subjects with HEADACHE, relationship PROBABLE [2]: 0 | Number of Subjects with HEADACHE, relationship UNLIKELY [2]: 0 | Number of Subjects with PHARYNG[…], relationship POSSIBLE [2]: 1 | Number of Subjects with PHARYNG[…], relationship PROBABLE [2]: 0 | Number of Subjects with PHARYNG[…], relationship UNLIKELY [2]: 0 | Number of Subjects with PLEURITIC PAIN, relationship POSSIBLE [2]: 0 | Number of Subjects with PLEURITIC PAIN, relationship PROBABLE [2]: 1 | Number of Subjects with PLEURITIC PAIN, relationship UNLIKELY [2]: 0 | Number of Subjects with SYNCOPE VASOVAGAL, relationship POSSIBLE [2]: 1 | Number of Subjects with SYNCOPE VASOVAGAL, relationship PROBABLE [2]: 0 | Number of Subjects with SYNCOPE VASOVAGAL, relationship UNLIKELY [2]: 0 | Total treatment emergent adverse events [2]: 27 | Vaso-vegal episode, duration [2]: 14 min | Vaso-vegal episode, time of occurrence after administration [2]: 22 min
